Reference: patent US8673850B2, “PCSK9 inhibitors and methods of use thereof” (Institut de Recherches Cliniques de Montreal, priority 2008, dated 2014)

Assays:
[1] = system: AnxA2; assay: 5-Azacytidine treatment of HepG2 cells, AnxA2 expression; format: cell-based, human
Excerpt: (§1) Western blotting experiments were made on samples that were reduced in Laemmli buffer, heated and resolved on 8% glycine SDS-PAGE gels. Separated proteins were then electro-transferred onto nitrocellulose, and probed with HRP-conjugated anti-V5 or anti-HA tags or with primary antibodies. […] Quantitation of band intensity was done with the ImageJ™ software version 1.37 (Wayne Rasband, National Institutes of Health, Bethesda, Md.).
(§2) For RNA preparation and cDNA synthesis cells were washed with PBS and incubated with Trizol reagent (Life Technologies). Total RNA was extracted and resuspended in ˜30 μL of water. Isolated RNA integrity was electrophoretically verified by ethidium bromide staining and optical density. Typically, 250 ng of total RNA were used for cDNA synthesis in a total volume of 20 μL using SuperScript™ II reverse transcriptase, 25 μg/mL oligo(dT)12-18, 0.5 mmol/L 2′-deoxynucleoside 5′-triphosphates, and 40 U of RNaseOUT™, all products from Life Technologies, and used according to the recommendations of the manufacturer. All primers were designed using Primer3™ software and optimized for each amplification. […] Each reaction was in a final volume of 25 μL using the QuantiTec SYBR Green™ PCR master mix from Qiagen, cDNA dilutions that gave threshold cycle (Ct) values for both amplifications, and primers for ribosomal-protein genes or the chosen target gene. […]

[2] = system: PCSK9; assay: 5-Azacytidine treatment of HepG2 cells, PCSK9 expression; format: cell-based, human
Excerpt: as §1, §2

[3] = system: LDLR; assay: 5-Azacytidine treatment of HepG2 cells, LDLR expression; format: cell-based, human
Excerpt: as §1, §2

[4] = system: HMG-CoA reductase; assay: 5-Azacytidine treatment of HepG2 cells, HMG-CoA reductase expression; format: cell-based, human; conditions: HepG2, qPCR
Method: For RNA preparation and cDNA synthesis cells were washed with PBS and incubated with Trizol reagent (Life Technologies). Total RNA was extracted and resuspended in ˜30 μL of water. Isolated RNA integrity was electrophoretically verified by ethidium bromide staining and optical density. Typically, 250 ng of total RNA were used for cDNA synthesis in a total volume of 20 μL using SuperScript™ II reverse transcriptase, 25 μg/mL oligo(dT)12-18, 0.5 mmol/L 2′-deoxynucleoside 5′-triphosphates, and 40 U of RNaseOUT™, all products from Life Technologies, and used according to the recommendations of the manufacturer. All primers were designed using Primer3™ software and optimized for each amplification. Each cDNA sample was submitted to 2 polymerase chain reaction (PCR) amplifications: one for normalizing ribosomal-protein gene (S14 for human and S16 for mouse cDNAs) and the other for the gene of interest, each in triplicate. Each reaction was in a final volume of 25 μL using the QuantiTec SYBR Green™ PCR master mix from Qiagen, cDNA dilutions that gave threshold cycle (Ct) values for both amplifications, and primers for ribosomal-protein genes or the chosen target gene. The Mx3500P™ system from Stratagene was used to perform and analyze the QPCR reactions, using S14 amplifications as normalizers and control samples as calibrators^25.35.

[5] = system: Annexin II; conditions: LNCaP cells; cited from earlier work

Question: What does the source list for `Nc1ncn([C@@H]2O[C@H](CO)[C@@H](O)[C@H]2O)c(=O)n1` [5-Azacytidine]?
Answer: AnxA2 mRNA expression ([1]; HepG2, 10 μM, qPCR): 3 fold; AnxA2 protein level ([1]; HepG2, Western blot): highly increased; secreted form of PCSK9 by western blot ([2]; HepG2, 24 or 48 hours of treatment): barely detectable; mRNA level of PCSK9 ([2]; HepG2, qPCR): drastically decreased; LDLR expression at the protein level ([3]; HepG2, Western blot): increased expression; LDLR mRNA level ([3]; HepG2, qPCR): increased; HMG-CoA reductase mRNA level [4]: decreased; expression of Annexin II [5]: induced an increase of expression
